Our source for the IC50 values is patent publication US20260274833A1 (NiKang Therapeutics, Inc., priority 2022, published 2026).

Molecules are shown by their SMILES.

This assay concerns the target T1, CDK2 (Homo sapiens, UniProt P24941).
T1 construct: endogenous in cells; host or cells: OVCAR3 cells
Put plainly: Phospho-RB measurement in OVCAR3 cells (HTRF phospho-RB cellular kit). Particulars: inhibition of RB phosphorylation at S807/811 (HTRF, TR-FRET ratio 665/620), 24 h compound treatment, 0.3 to 10,000 nM. It is filed as cell-based. The method, boiled down:
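IC50 came from a four-parameter logistic fit of the DMSO-normalized TR-FRET ratio (665/620 nm). That ratio reflects RB phosphorylation at S807/811, read with an HTRF antibody pair 4 h after adding lysate at room temperature.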
As usually defined, the IC50 is the concentration at which inhibition is half-maximal. Turning to `CC(C)(C)c1nc(-c2cccc(NS(=O)(=O)N3CCNc4ccccc43)c2F)c(-c2ccnc(NC3CCN(S(C)(=O)=O)CC3)n2)s1` [Example 106, N-(3-(2-(tert-butyl)-5-(2-((1-(methylsulfonyl)piperidin-4-yl)amino)-pyrimidin-4-yl)thiazol-4-yl)-2-fluorophenyl)-3,4-dihydroquinoxaline-1(2H)-sulfonamide], the IC50 stood at 263 nM.
Consider `COc1cccc2c1CN(S(=O)(=O)Nc1cccc(-c3nc(N4C5CCC4CN(C)C5)sc3-c3ccnc(NC4CC5(C4)CS(=O)(=O)C5)n3)c1F)C2` [Example 31, N-(3-(5-(2-((2,2-dioxido-2-thiaspiro-[3.3]-heptan-6-yl)amino)pyrimidin-4-yl)-2-(3-methyl-3,8-diazabicyclo [3.2.1]-octan-8-yl)-thiazol-4-yl)-2-fluoro-phenyl)-4-methoxy-isoindoline-2-sulfonamide], for which the half-maximal inhibitory concentration (IC50) is 30.2 nM.
Under `CC(C)(C)c1nc(-c2cccc(NS(=O)(=O)N3CCc4ncccc43)c2F)c(-c2ccnc(NC3CCN(S(C)(=O)=O)CC3)n2)s1` [Example 141, N-(3-(2-(tert-butyl)-5-(2-((1-(methylsulfonyl)-piperidin-4-yl)amino)-pyrimidin-4-yl)thiazol-4-yl)-2-fluoro-phenyl)-2,3-dihydro-1H-pyrrolo [3,2-b]-pyridine-1-sulfonamide] stands 291 nM.
Take `CC(C)(C)c1nc(-c2cccc(NS(=O)(=O)N3CCC4(CCCC4)C3)c2F)c(-c2ccnc(NC3CCN(S(=O)(=O)N4CCNCC4)CC3)n2)s1` [Example 176, N-(3-(2-(tert-butyl)-5-(2-((1-(piperazin-1-ylsulfonyl)piperidin-4-yl)amino)-pyrimidin-4-yl)thiazol-4-yl)-2-fluoro-phenyl)-2-azaspiro[4.4] nonane-2-sulfonamide]: the IC50 is 1920 nM.
Under `C[C@H]1c2ccccc2CN1S(=O)(=O)Nc1cccc(-c2nc(C(C)(C)C)sc2-c2ccnc(NC3CCN(S(C)(=O)=O)CC3)n2)c1F` [Example 131, (S)-N-(3-(2-(tert-butyl)-5-(2-((1-(methyl-sulfonyl)piperidin-4-yl)amino)pyrimidin-4-yl)thiazol-4-yl)-2-fluoro-phenyl)-1-methyliso-indoline-2-sulfonamide] stands 160 nM; under `C[C@H]1COC[C@H](C)N1c1nc(-c2cccc(NS(=O)(=O)N3CCc4ccc(C(F)(F)F)cc43)c2F)c(-c2ccnc(N[C@H]3CC[C@H](S(C)(=O)=O)CC3)n2)s1` [Example 297, N-(3-(2-((38, 5S)-3,5-dimethyl-morpholino)-5-(2-(((1r,4S)-4-(methyl-sulfonyl)cyclohexyl)amino)pyrimidin-4-yl)thiazol-4-yl)-2~fluorophenyl)-6-(trifluoromethyl) indoline-1-sulfonamide], 103 nM.
The value for `CC(C)(C)c1nc(-c2cccc(NS(=O)(=O)N3CCc4ccc(C#N)cc43)c2F)c(-c2ccnc(Nc3ccc(N4CCNCC4)cc3)n2)s1` [Example 225, N-(3-(2-(tert-butyl)-5-(2-((4-(piperazin-1-yl)phenyl)amino)pyrimidin-4-yl)-thiazol-4-yl)-2-fluorophenyl)-6-cyano-indoline-1-sulfonamide] was 456 nM; that for `CN(C)CCN(C)S(=O)(=O)N1CCC(Nc2nccc(-c3sc(C(C)(C)C)nc3-c3cccc(NS(=O)(=O)N4Cc5ccncc5C4)c3F)n2)CC1` [Example 157, N-(3-(2-(tert-butyl)-5-(2-((1-(N-(2-(dimethyl-amino)ethyl)-N-methylsulfamoyl)piperidin-4-yl)amino)-pyrimidin-4-yl)thiazol-4-yl)-2-fluoro-phenyl)-1,3-dihydro-2H-pyrrolo [3,4-c]-pyridine-2-sulfonamide] was 191 nM; that for `N#Cc1ccc2c(c1)N(S(=O)(=O)Nc1cccc(-c3nc(N4C5CCC4COC5)sc3-c3ccnc(NC4CC5(C4)CS(=O)(=O)C5)n3)c1F)CC2` [Example 6, N-(3-(2-(3-oxa-8-azabicyclo[3.2.1]octan-8-yl)-5-(2-((2,2-dioxido-2-thiaspiro-[3.3]heptan-6-yl)amino)pyrimidin-4-yl)thiazol-4-yl)-2-fluorophenyl)-6-cyanoindoline-1-sulfonamide] was 109 nM.
Consider `CS(=O)(=O)[C@H]1CC[C@H](Nc2nccc(-c3sc(C45CC(C(F)(F)F)(C4)C5)nc3-c3cccc(NS(=O)(=O)N4CCc5ccc(C#N)cc54)c3F)n2)CC1` [Example 56, 6-cyano-N-(2-fluoro-3-(5-(2-(((1r,4r)-4-(methylsulfonyl)cyclohexyl)amino)-pyrimidin-4-yl)-2-(3-(trifluoromethyl)-bicyclo[1.1.1]-pentan-1-yl)thiazol-4-yl)phenyl)indoline-1-sulfonamide], for which the IC50 was 270 nM.
For `CC(C)(C)c1nc(-c2cccc(NS(=O)(=O)N3Cc4cccc(C(F)F)c4C3)c2F)c(-c2ccnc(NC3CC4(C3)CS(=O)(=O)C4)n2)s1` [Example 262, N~(3-(2-(tert-butyl)-5-(2-((2,2-dioxido-2-thiaspiro[3.3]heptan-6-yl)amino)-pyrimidin-4-yl)thiazol-4-yl)-2-fluoro-phenyl)-4-(difluoromethyl)-isoindoline-2-sulfonamide], the IC50 is 31.2 nM.
For `COc1cccc2c1CN(S(=O)(=O)Nc1cccc(-c3nc(C(C)(C)C)sc3-c3ccnc(NC4CCN(S(C)(=O)=O)CC4)n3)c1F)C2` [Example 78, N-(3-(2-(tert-butyl)-5-(2-((1-(methylsulfonyl)-piperidin-4-yl)amino)-pyrimidin-4-yl)thiazol-4-yl)-2-fluoro-phenyl)-4-methoxyisoindoline-2-sulfonamide], the IC50 came to 65.6 nM.
Take `CC(C)(C)c1nc(-c2cccc(NS(=O)(=O)N3CCNc4ccccc43)c2F)c(-c2ccnc(NC3CCN(S(=O)(=O)N4CCNCC4)CC3)n2)s1` [Example 129, N-(3-(2-(tert-butyl)-5-(2-((1-(piperazin-1-ylsulfonyl)piperidin-4-yl)amino)-pyrimidin-4-yl)thiazol-4-yl)-2-fluoro-phenyl)-3,4-dihydroquinoxaline-1(2H)-sulfonamide]: the IC50 was determined as 328 nM.
Take `CC(C)c1nc(-c2cccc(NS(=O)(=O)N3CCc4ccccc43)c2F)c(-c2ccnc(NC3CCN(S(=O)(=O)N4CCNCC4)CC3)n2)s1` [Example 178, N-(2-fluoro-3-(2-isopropyl-5-(2-((1-(piperazin-1-ylsulfonyl)piperidin-4-yl)amino)pyrimidin-4-yl)thiazol-4-yl)phenyl)indoline-1-sulfonamide]: the IC50 stood at 203 nM.
`CC(C)(C)c1nc(-c2cccc(NS(=O)(=O)N3CCc4ccc(C#N)cc43)c2F)c(-c2ccnc(NC3CC4(C3)CS(=O)(=O)C4)n2)s1` [Example 170, N-(3-(2-(tert-butyl)-5-(2-((2,2-dioxido-2-thiaspiro[3.3]heptan-6-yl)amino)-pyrimidin-4-yl)thiazol-4-yl)-2-fluoro-phenyl)-6-cyano-indoline-1-sulfonamide]: the IC50 worked out at 62 nM.
Take `CC(C)(C)c1nc(-c2cccc(NS(=O)(=O)N3CCC4(CC4)C3)c2F)c(-c2ccnc(NC3CC4(C3)CN(S(C)(=O)=O)C4)n2)s1` [Example 199, N-(3-(2-(tert-butyl)-5-(2-((2-(methylsulfonyl)-2-azaspiro [3.3]heptan-6-yl)amino)pyrimidin-4-yl)thiazol-4-yl)-2-fluorophenyl)-5-azaspiro [2.4]heptane-5-sulfonamide]: the IC50 is more than 3840 nM.
In the case of `CC(C)(C)c1nc(-c2cccc(NS(=O)(=O)N3Cc4ccncc4C3)c2F)c(-c2ccnc(NC3CCN(S(=O)(=O)N4CCNCC4)CC3)n2)s1` [Example 126, N-(3-(2-(tert-butyl)-5-(2-((1-(piperazin-1-ylsulfonyl)piperidin-4-yl)amino)-pyrimidin-4-yl)thiazol-4-yl)-2-fluorophenyl)-1,3-dihydro-2H-pyrrolo[3,4-c] pyridine-2-sulfonamide], the IC50 was 366 nM.
The value for `CC(C)Oc1cccc2c1CN(S(=O)(=O)Nc1cccc(-c3nc(C(C)(C)C)sc3-c3ccnc(NC4CC5(C4)CS(=O)(=O)C5)n3)c1F)C2` [Example 226, N-(3-(2-(tert-butyl)-5-(2-((2,2-dioxido-2-thiaspiro[3.3]heptan-6-yl)amino)-pyrimidin-4-yl)thiazol-4-yl)~2~fluoro-phenyl)-4-isopropoxyiso-indoline-2-sulfonamide] was 527 nM; that for `CS(=O)(=O)[C@H]1CC[C@H](Nc2nccc(-c3sc(C45CC(C(F)(F)F)(C4)C5)nc3-c3cccc(NS(=O)(=O)N4CCc5ccccc54)c3F)n2)CC1` [Example 53] was 262 nM.
On to `CN(c1cccc2c1NCC2)S(=O)(=O)Nc1cccc(-c2nc(C(C)(C)C)sc2-c2ccnc(NC3CCN(S(C)(=O)=O)CC3)n2)c1F` [Example 259, N-(3-(2-(tert-butyl)-5-(2-((1-(methylsulfonyl)-piperidin-4-yl)amino)-pyrimidin-4-yl)thiazol-4-yl)-2-fluoro-phenyl)-(N-methyl-N-indolin-7-yl)-amine-sulfonamide], for which the half-inhibitory concentration (IC50) was found to be 2040 nM.
`O=S1(=O)CC2(CC(Nc3nccc(-c4sc(C56CC(F)(C5)C6)nc4-c4cccc(NS(=O)(=O)N5CCc6ccc(C(F)(F)F)cc65)c4F)n3)C2)C1` [Example 277, N-(3-(5-(2-((2,2-dioxido-2-thiaspiro-[3.3]-heptan-6-yl)amino)pyrimidin-4-yl)-2-(3-fluorobicyclo [1.1.1]pentan-1-yl)-thiazol-4-yl)-2-fluorophenyl)-6-(trifluoromethyl) indoline-1-sulfonamide]: the IC50 was 111 nM.
`CC1(c2nc(-c3cccc(NS(=O)(=O)N4CCc5ccc(C#N)cc54)c3F)c(-c3ccnc(N[C@H]4[C@@H]5CS(=O)(=O)C[C@@H]54)n3)s2)CCOCC1` [Example 10]: the IC50 was determined as 73 nM.
On to `CC(C)(C)c1nc(-c2cccc(NS(=O)(=O)N3CCc4ccc(C#N)cc43)c2F)c(-c2ccnc(NC3CCN(S(=O)(=O)N4CCNCC4)CC3)n2)s1` [Example 120, N-(3-(2-(tert-butyl)-5-(2-((1-(piperazin-1-ylsulfonyl)piperidin-4-yl)amino)-pyrimidin-4-yl)thiazol-4-yl)-2-fluorophenyl)-6-cyanoindoline-1-sulfonamide], for which the IC50 was determined as 86.9 nM.
